Patent publication US9364448B2, “Nitisinone for treatment of oculocutaneous/ocular albinism and for increasing pigmentation” (The United States of America, as represented by the …, priority 2010, dated 2016)

What was measured:
[1] = system: C57BL/6J-Tyr^c-h/c-h mice (OCA1b model); test: Transmission electron microscopy of iris, RPE and choroid, Tyr^c-h/c-h mice; format: in vivo, mouse; settings: treated vs controls, statistically significant in all three tissues, FIG. 4
Description: Transmission Electron Microscopy. Eyes from drug and vehicle-treated mice were dissected and divided into anterior and posterior segments (n=2 eyes from 2 separate mice in each group). The iris and posterior part (choroid, RPE and retina) of the eyes were removed and fixed in 2% glutaraldehyde and 2% paraformaldehyde in 0.1 M sodium phosphate buffer (PB), pH 7.4 for about 12 hours at room temperature (RT). After a wash with rinsing buffer (RB, 4% sucrose and 0.15 mM CaCl2 in PB), pH 7.4 at 4° C., tissues were postfixed in 1% OsO4 in 0.1 M PB, pH 7.4 for 1 hour. After rinsing and dehydration, tissues were embedded in Durcupan resin for 72 hours at 60° C. One micron semi-sections were used for tissue orientation. About 70-90 nm ultrasections were also collected in 200 mesh grids and counterstained with 5% uranyl acetate and 0.3% lead citrate. […]
In order to quantitate the effect of NTBC on pigmentation in ocular tissues and to assess for sub-clinical changes in ocular pigmentation, transmission electron microscopy (TEM) of iris, retinal pigment epithelium (RPE), and choroid of treated and control mice (n=4 eyes from 2 mice for each group) was performed. […]

[2] = affected individuals, oral dosing; cited from earlier work
[3] = target: T1, H420R mouse tyrosinase (Mus musculus, UniProt P11344, H420R); test: Tyrosinase protein stability in CHO cells with cycloheximide, H420R; format: cell-based; settings: 1 mM tyrosine, later time points (9 and 24 hours)
T1 construct: expressed in transfected cells; host or cells: CHO cells, pcDNA3.1
T1 sequence (P11344 19-533 H420R): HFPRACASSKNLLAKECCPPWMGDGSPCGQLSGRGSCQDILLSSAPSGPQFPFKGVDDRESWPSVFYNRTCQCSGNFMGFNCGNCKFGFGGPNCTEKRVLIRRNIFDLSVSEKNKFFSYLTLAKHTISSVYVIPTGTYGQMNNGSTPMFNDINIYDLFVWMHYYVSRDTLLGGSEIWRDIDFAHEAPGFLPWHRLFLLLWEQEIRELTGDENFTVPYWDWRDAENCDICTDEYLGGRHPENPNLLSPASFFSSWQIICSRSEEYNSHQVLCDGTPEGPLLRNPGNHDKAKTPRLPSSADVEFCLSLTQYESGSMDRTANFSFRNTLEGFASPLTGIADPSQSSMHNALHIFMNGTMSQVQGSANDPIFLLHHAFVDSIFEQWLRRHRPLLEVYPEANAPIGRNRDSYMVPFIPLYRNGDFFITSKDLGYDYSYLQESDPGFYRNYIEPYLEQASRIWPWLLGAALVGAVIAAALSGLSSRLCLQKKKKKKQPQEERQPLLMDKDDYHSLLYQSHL
Description: In Vitro Expression and Enzyme Activity. The expression construct of mouse Tyr was a kind gift of Dr. C. Olivares from the School of Medicine of the University of Murcia (Spain). This construct was prepared in the pcDNA3.1 expression vector (Invitrogen, Carlsbad, Calif.) using EcoRI/XbaI restriction sites and based on the mouse Tyr clone obtained as described previously in C. Olivares, et al., Biochem. J., 354:131 (2001). Constructs of tyrosinase gene mutant variants, with changes corresponding to missense mutations R77L and H420R in the mouse tyrosinase protein sequence, were created using standard methodologies (Mutagenex Inc., Piscataway, N.J.). […]
Chinese hamster ovary cells (CHO) (generous gift from Dr. J. T. Wroblewski from the Pharmacology Department, Georgetown University Medical Center, Washington D.C.) were grown at a temperature of about 37° C. in DMEM media, in the presence of 10% fetal bovine serum, 1% penicillin and 4.5 g […] per 0.5 liter of media. […] The total protein content in protein lysates was determined spectrophotometrically as a 280/260 ratio. Protein expression was analyzed by Western blotting, and GAPDH was used as an internal loading control. For the analysis, Western blots were scanned, intensities of protein bands were determined, and ratios of band intensities for the wild type or mutant variants, to that of GAPDH were calculated. […]

SMILES	Number of pigmented melanosomes in iris, choroid and RPE (TEM) [1]	Half-life [2] [h]	Stability of H420R mutant tyrosinase protein relative to GAPDH [3]
O=C1CCCC(=O)C1C(=O)c1ccc(C(F)(F)F)cc1[N+](=O)[O-] [NTBC, 2-(-2-nitro-4 trifluoromethylbenzoyl)-1,3 cyclohexanedione]	clear increase	50 to 60	
N[C@@H](Cc1ccc(O)cc1)C(=O)O [tyrosine]			improved the stability
